# Measurements: patent publication US6533767B2, “Methods for enhancing fluid flow through an obstructed vascular site, and systems and kits for use in practicing the same” (Corazon Technologies, Inc., priority 2000, dated 2003)
# Tests used:
# [1] = In vitro thrombus removal in cadaveric femoral arteries; details: 1% solution, approximately 60 cc per treatment over a 10 minute interval
# Protocol: Fresh cadaveric femoral arteries which contained soft clots partially occluding the. vessel lumen were used. […] Vessels were treated with a 1% surfactant solution of sodium dodecyl sulfate (SDS, Sigma chemicals), prepared immediately prior to use. Treatment consisted of injection of surfactant through a 35 cc male luer syringe and flow characteristics recorded.
# [2] = In vitro cholesterol dissolution; type: physicochemical; details: for effectiveness in solvating / dissolving crystalline cholesterol: 0.1 grams cholesterol in 50 mLs 1% surfactant solution; for cholesterol crystal presence or absence and crystal morphology (light microscopy): 0.1 grams cholesterol in 50 mLs surfactant solution, agitation up to 1 hour, 200x magnification, time as in value
# Protocol: Dissolution of cholesterol was examined in different solutions of bile salts, non-ionic, and ionic surfactants. Solutions of bile salts were prepared as follows: 0.5% solutions of cholic, dehydrocholic, deoxycholic, lithocholic acids were made by dissolving 0.5 grams of the free acid powders in 100 mL H2O previously adjusted to pH=12 with sodium hydroxide. Solutions were then adjusted to pH=7.5 with HCl. 1% surfactant solutions were made by dilution of concentrated stock solutions: Benzalkonium chloride, nonoxynol-9, sodium dodecyl sulfate, were prepared immediately prior to use. Dissolution studies were performed by adding 0.1 grams cholesterol powdered crystals to 50 mLs of the above surfactants with agitation on a rocker table for 1 hour. Solutions were then examined under light microscopy 200× magnification and cholesterol crystal presence or absence and crystal morphology recorded for each solution.
# [3] = Solution containing surfactant and acid components, effect on cholesterol crystals; type: physicochemical; details: SDS 1%; combination with 0.1N HCl pH 1.0, isotonic (300 mOsmol)
# Protocol: A solution of sodium dodecyl sulfate (SDS) (a.k.a. sodium lauryl sulfate) (1%) and 0.1N hydrochloric acid (pH 1.0) made isotonic (300 mOsmol) with sodium chloride was prepared and compared with a solution of sodium dodecyl sulfate solution (1%). […] This combination solution can be buffered with sodium bicarbonate (NaHCO3) in the same manner that the hydrochloric acid solution is buffered with NaHCO3, as described in the specification supra.
Compound,flow through vessel after treatment [1],removal of soft thrombus [1],effectiveness in solvating / dissolving crystalline cholesterol [2],cholesterol crystal presence or absence and crystal morphology (light microscopy) [2],micelle formation around cholesterol crystals [3],crystal dissolution ([2]; by 1 hour)
"CCCCCCCCCCCCOS(=O)(=O)[O-].[Na+] [Sodium dodecyl sulfate, sodium dodecyl sulfate]",Flow was reestablished in all samples,effective in removing soft thrombus from occluded femoral arteries,most effective in solvating,no free crystals were observed 5 minutes after cholesterol addition,formed micelles around cholesterol crystals making the cholesterol crystals water soluble,
Benzalkonium chloride,,,appeared to dissolve most of the crystalline cholesterol,still crystals apparent after 10 minutes,,approximately 50%
nonoxynol-9,,,,little or no observable effect on the crystal structure,,
